# According to US20190031650A1, “DNA ALKYLATION AND CROSS-LINKING AGENTS AS COMPOUNDS AND PAYLOADS FOR TARGETED THERAPIES” (YALE UNIVERSITY, priority 2016, published 2019):
# Entries after “also recorded” stand apart in the source; their conditions may differ.
# Tests used:
# linearized pBR322 DNA = test: DNA alkylation assay (electrophoretic gel assay) with linearized pBR322 DNA; assay type: biochemical; settings: 37° C.; for DNA cross-linking: 10 μM
# Procedure: FIG. 17 A. DNA alkylation assay employing linearized pBR322 DNA and the pyridone derivatives 17a or 17b or the unsaturated imines 15a or 15b. Conditions: Linearized pBR322 DNA (20 μM in base pairs (bps)), 15a (100, 10, 1, 0.5, or 0.1 μM), 15b (500, 100, 10, or 1 μM), 17a (500 or 100 μM) or 17b (500 or 100 μM), 37° C., 15 h. Cisplatin (CP; 100 μM) and methyl methanesulfonate (MMS; 500, 100, or 10 μM) were used as positive controls for DNA cross-linking and alkylation, respectively. DNA was visualized using SybrGold. B. DNA alkylation assay employing linearized pBR322 DNA and the unsaturated imine 15a. Conditions: Linearized pBR322 DNA (20 μM in base pairs), 15a (100, 10, 1, 0.1, 0.05, 0.01, or 0.005 μM), 37° C., 15 h.
# FIG. 19 A. Structures of the dimer 15c and the gem-dimethyl derivative 15d. B. DNA alkylation assay employing linearized pBR322 DNA and the dimer 15c or the gem-dimethyl derivative 15d. Conditions: Linearized pBR322 DNA (20 μM in base pairs), 15c (10 μM) or 15d (500 or 100 μM), 37° C., 0.1-15 h.
# B. DNA alkylation assay employing linearized pBR322 DNA and the unsaturated lactam 19 or the unsaturated imine 15j. Conditions: Linearized pBR322 DNA (20 μM in base pairs), 19 (500, 100, 10, or 1 μM) or 15j (500, 100, 10, or 1 μM), 37° C., 15 h.
# Conditions: Linearized pBR322 DNA (20 μM in base pairs), 15h (1, 0.1, or 0.01 μM), 15i (1, 0.1, or 0.01 μM), 15f (1, 0.1, or 0.01 μM), 15g (1, 0.1, or 0.01 μM), 15a (1, 0.1, or 0.01 μM), 15e (1, 0.1, or 0.01 μM), 37° C., 15 h. Methyl methanesulfonate (MMS; 500 or 100 μM) was used as a positive control for DNA alkylation. DNA was visualized using SybrGold.
# The activity of 15a, 15b, 17a, and 17b was evaluated in a DNA alkylation assay. Plasmid pBR322 DNA was treated with EcoRI-HF in Cutsmart buffer, and the resulting linearized DNA was incubated with 15a, 15b, 17a, or 17b for 15 h at 37° C. The DNA was then denatured, and the sample was eluted on a 1% neutral agarose gel. DNA was visualized with SybrGold. Cisplatin (CP, 100 μM) and methyl methanesulfonate (MMS, 500, 100, or 10 μM) were used as positive controls for DNA cross-linking and alkylation, respectively. […] The streaking of DNA induced by 15a and 15b parallels that observed with 500 μM of MMS and derives from the presence of shorter DNA strands that are formed by thermal or alkaline denaturation of extensively-alkylated (or in the case of MMS, methylated) DNA.^16 Further evidence for direct alkylation by 15a and 15b is presented in the cross-linking study outlined below.
# The […] plasmid pBR322 was propogated in DH5a, isolated by MaxiPrep (Qiagen), and linearized with 5 U/μg EcoRI (NEB). The cut plasmid was column purified and eluted into 10 mM Tris pH 8.0. For each reaction, 130 ng of DNA (20 μM base pairs) was incubated with compound in a 10 μL total volume. Reactions proceeded for 15 h at 37° C., unless otherwise noted. Compounds were diluted in DMSO such that each reaction consisted of a fixed 5% DMSO concentration. Pure MMS (Alfa Aesar) and cisplatin (Biovision) stock solutions were diluted into DMSO immediately prior to use. After incubation, 35 μL of denaturation buffer (6% sucrose, 1% sodium hydroxide, 0.04% bromophenol blue) was added to each reaction. Non-denatured control samples were diluted with 6% sucrose, 0.04% bromophenol blue. Samples were vortexed for 1 min, left at room temperature for 15 min, and then immediately frozen at −80° C. Thawed samples were then loaded onto a 1% agarose Tris-Borate-EDTA (TBE) gel stained with SybrGold (Molecular Probes) and run in TBE buffer for 1 hour at 120V.
# calf thymus DNA (ctDNA) = test: DNA melting temperature analysis (UV thermal denaturation); assay type: binding
# Procedure: (§1) Conditions: 2.09 mM NaH2PO4, 7.13 mM Na2HPO4, 928 μM Na2EDTA, 1.01 mM DMSO, pH 7.18. The imine 15a was incubated with ctDNA for 5 min, 1 h, 3 h, 6 h, or 15 h prior to UV thermal denaturation experiments (260 nm, heating rate: 0.5° C./min). [DNA]=32.0 mM bps. The Tm was defined as the temperature at which half of the duplex DNA was unwound, and was determined by the maximum of the first derivative of the thermal denaturation profile.
# as §1, with “pyridone 17a” for “imine 15a”, “for” for “for 5 min, 1 h,”, “3” for “3 h, 6 h, or 15”
# A DNA melting temperature analysis was conducted to determine if the variance in DNA alkylation activity between the pyridones and the unsaturated imines was due to differences in DNA binding affinity. The hyperchromicity of calf thymus DNA (ctDNA) with increasing temperature was measured at 260 nm in the presence of varying concentrations of 15a or 17a. The Tm was defined as the temperature at which half of the duplex DNA was unwound and was determined by the maximum of the first derivative of the thermal denaturation profile. […] The inventors hypothesized that this was due to an initial binding of 15a to the duplex followed by slow alkylation and degradation. To probe this, they repeated the plasmid alkylation assay using 15a and evaluated the extent of DNA alkylation as a function of time.
# UV thermal denaturation samples were prepared by mixing calf thymus DNA [32.0 mM base pairs (bps)] in 2.09 mM NaH2PO4, 7.13 mM Na2HPO4, 928 μM Na2EDTA, 1.01 mM DMSO, pH 7.18 to a final volume of 1.0 mL. Samples were subjected to sonication (6 h) at 25° C. to effect complete dissolution. After incubation with 15a, 15b, 17a, and 17b for 5 min, 1 h, 3 h, 6 h, or 15 h, the UV thermal denaturation spectra of the samples were recorded at 260 nm as a function of temperature (55→80° C., heating rate: 0.5° C./min). First derivative plots were used to determine the denaturation temperature.
# [1] = tested on: colibactin peptidase ClbP; test: LC-HRMS analysis for the in vivo cleavage of synthetic 6 by ClbP; assay type: cell-based; settings: 50 μM in E. coli DH10B pClbP culture, 37° C., 24 h
# Procedure: E. coli DH10B pClbP (pPEB018) and the bacteria harboring the empty vector pBAD18 (as previously reported^3) were grown in LB medium supplemented with 100 μg/mL ampicillin. The next morning, 50 μL of these saturated cultures were used to inoculate 2.5 mL of LB medium containing 100 μg/mL ampicillin. Cultures were incubated at 37° C. with shaking at 250 rpm. At an OD600 of 0.4-0.5, cultures were induced with L-arabinose and left to grow for another 30 min. Then, the synthetic 6 substrate (10 mM stock solution in DMSO) or DMSO (vector control) was added to each culture to a final concentration of 50 μM, and incubated at 37° C. for 24 h. At the designated time point, the cultures were extracted with organic solvent and analyzed by LC-HRMS on a Phenomenex C18-A column (150×4.6 mm, 180 Å, 5 μm particle size, Agilent) with a water:acetonitrile (ACN) gradient containing 0.1% formic acid 0.7 mL/min: 1-2 min, 5% ACN; ramp to 98% ACN over 18 min; hold for 5 min at 100% ACN.
# [2] = tested on: colibactin peptidase ClbP; settings: earlier publication (ref. 10); cited from earlier work
# [3] = linearized pBR322 DNA (20 μM bp), 15 h
# [4] = 2 bp equiv, incubation 5 min to 15 h
# [5] = linearized pBR322 DNA (20 μM bp), 15 h, concentrations up to 500 μM
structure (smiles),measurement,setting,value
C[C@H]1CCC(C2=C(CC(=O)NCc3nc(-c4nc(C(=O)NCCN(C)C)cs4)cs3)C3(CC3)NC2=O)=N1 [15a],"extent of DNA damage, dose response","linearized pBR322 DNA; 5 nM, 15 h (FIG. 17B)",negligible
same,extent of DNA alkylation as a function of time,"linearized pBR322 DNA; 1 μM, 0.1-15 h (FIG. 18C)",alkylation activity correlated approximately with the decrease in duplex stability
same,"DNA damage, dose response","linearized pBR322 DNA; 50 or 10 nM, 15 h (FIG. 17B)",small amounts of DNA damage
same,"DNA alkylation, dose response","linearized pBR322 DNA; concentrations as low as 100 nM, 15 h (FIG. 17B)",extensive DNA alkylation
same,DNA alkylation,linearized pBR322 DNA; [3],extensively alkylated DNA
same,DNA alkylation activity relative to 15b,"linearized pBR322 DNA; linearized pBR322 DNA, 15 h (FIG. 17A)",significantly more active than the N-methylamide 15b
same,time dependence of the effect on melting temperature / duplex stability,"calf thymus DNA (ctDNA); 1 or 2 bp equiv, incubation 5 min, 1 h, 3 h, 6 h or 15 h",time-dependent effects on duplex stability; also recorded: Time-dependent modulation of the melting temperature
same,duplex stability,"calf thymus DNA (ctDNA); longer incubations (3-15 h), 1 or 2 bp equiv",duplex stability decreased
same,increase in Tm,calf thymus DNA (ctDNA); rligand/bp=2,1.8 °C
same,duplex stability,"calf thymus DNA (ctDNA); times less than 1 h, 1 or 2 bp equiv",stabilization of the duplex was observed
CNC(=O)c1csc(-c2csc(CNC(=O)CC3=C(C4=N[C@@H](C)CC4)C(=O)NC34CC4)n2)n1 [15b],DNA alkylation,linearized pBR322 DNA; [3],extensively alkylated DNA
same,modulation of the melting temperature of calf thymus DNA,"calf thymus DNA (ctDNA); 1 bp equiv, incubation 5 min, 3 h or 15 h",no significant modulation
same,modulation of the melting temperature of calf thymus DNA,calf thymus DNA (ctDNA); [4],no significant modulation
C[C@H]1CCC(C2=C(CC(=O)NCc3nc(-c4nc(C(=O)NCCCN(C)CCCNC(=O)c5csc(-c6csc(CNC(=O)CC7=C(C8=N[C@@H](C)CC8)C(=O)NC78CC8)n6)n5)cs4)cs3)C3(CC3)NC2=O)=N1 [15c],DNA cross-linking,linearized pBR322 DNA; 3 h,a clear cross-linked band
same,DNA cross-linking,linearized pBR322 DNA; later timepoints (6 or 15 h),this cross-linked band diminished
C[C@H]1CCC(C2=C(CC(=O)NCc3nc(-c4nc(C(=O)NCCN(C)C)cs4)cs3)C(C)(C)NC2=O)=N1 [15d],DNA alkylation activity,linearized pBR322 DNA; [5],did not alkylate DNA
C[C@H]1CCC(C2=C(CC(=O)N(C)Cc3nc(-c4nc(C(=O)NCCN(C)C)cs4)cs3)C3(CC3)NC2=O)=N1 [15j],DNA alkylation / decomposition of the DNA,"linearized pBR322 DNA; 10 or 1 μM, 15 h (FIG. 21B)",extensive decomposition of the DNA
same,DNA alkylation potency relative to lactam 19,linearized pBR322 DNA; 15 h (FIG. 21B),significantly more potent
C[C@H](N)CCc1c2c(cc(=O)n1Cc1nc(-c3nc(C(=O)NCCN(C)C)cs3)cs1)C1(CC1)NC2=O [17a],DNA alkylation activity,linearized pBR322 DNA; [5],neither of the pyridone derivatives 17a or 17b displayed measurable activity
same,effect of increasing amounts on melting temperature of ctDNA,"calf thymus DNA (ctDNA); incubated with ctDNA for 3 h, 260 nm",dose-dependent increase in the melting temperature
same,increase in Tm,"calf thymus DNA (ctDNA); ratio of compound to base pairs of 4.0, incubated 3 h",3.8 °C
same,increase in Tm,calf thymus DNA (ctDNA); rligand/bp=2,2.8 °C
CNC(=O)c1csc(-c2csc(Cn3c(CC[C@H](C)N)c4c(cc3=O)C3(CC3)NC4=O)n2)n1 [17b],DNA alkylation activity,linearized pBR322 DNA; [5],neither of the pyridone derivatives 17a or 17b displayed measurable activity
same,modulation of the melting temperature of calf thymus DNA,calf thymus DNA (ctDNA); [4],no significant modulation
C[C@@H](CCC(=O)C1=C(CC(=O)N(C)Cc2nc(-c3nc(C(=O)NCCN(C)C)cs3)cs2)C2(CC2)NC1=O)NC(=O)OC(C)(C)C [compound 19],DNA alkylation activity,"linearized pBR322 DNA; 500 μM, 15 h (FIG. 21B)",weak DNA alkylation activity
CCCCCCCCCCCCCC(=O)N[C@H](CC(N)=O)C(=O)N[C@@H](C)CCc1c2c(cc(=O)n1Cc1nc(-c3nc(C(=O)O)cs3)cs1)C1(CC1)NC2=O [precolibactin C (6)],cleavage by ClbP,[1],converted to N-myristoyl-D-Asn and its corresponding colibactin by colibactin peptidase ClbP; also recorded: converted to N-myristoyl-D-Asn and its corresponding colibactin in a ClbP-dependent manner
same,substrate for ClbP,[2],demonstrated to be a substrate for ClbP
